According to patent US11466033B2 (ENANTA PHARMACEUTICALS, INC., priority 2019, dated 2022):

Molecular target: ASK1 (Homo sapiens (Human), UniProt Q99683)
Test: HTRF KinEASE assay, inhibition of ASK1
Type: biochemical
Details: ASK1 kinase, 100 μM ATP, 1 μM STK3 peptide substrate, TR-FRET
Experimental: Assay HTRF® KinEASE™ Assay
ASK1 was purchased from Thermofisher (Catalogue #PV4011), ATP was purchased from Sigma (Catalogue #A7699), HTRF® KinEASE™ Assay System was obtained from Cisbio (Bedford, Mass.). ½ Area plate was purchased from Perkin Elmer (Catalogue ##6005560). HTRF® KinEASE™-STK is a generic method for measuring serine/threonine kinase activities using a time-resolved fluorescence resonance energy transfer (TR-FRET) immunoassay. The IC50 value for each compound was determined in the presence of compound (various concentration from 0 to 10 μM) and a fixed amount of ATP and peptide substrates. The test compound, 1 μM STK3 peptide substrate, and […] of ASK1 kinase are incubated with kinase reaction buffer containing 50 mM HEPES Ph 7.5, 0.01% BRIJ-35, 10 mM MgCl2, and 1 mM EGTA for 30 minutes. 100 μM ATP is added to start kinase reaction and incubated for 3 hours. The STK3-antibody labeled with Eu^3+-Cryptate and 125 nM streptavidin-XL665 are mixed in a single addition with stop reagents provided by the Cisbio kit used to stop the kinase reaction. Fluorescence is detected using an Envision Multilabeled 2014 reader from PerkinElmer. The Fluorescence is measured at 615 nm (Cryptate) and 665 nm (XL665) and a ratio of 665 nm/615 nm is calculated for each well. The resulting TR-FRET is proportional to the phosphorylation level. Staurosporine was used as the positive control. IC50 was determined by Xlfit 5.3.
By using above method, the inhibition of ASK1 was evaluated for the compounds of Formula (I). Example numbers correspond to those in Table 6.

Sequence of ASK1 (Q99683 whole entry): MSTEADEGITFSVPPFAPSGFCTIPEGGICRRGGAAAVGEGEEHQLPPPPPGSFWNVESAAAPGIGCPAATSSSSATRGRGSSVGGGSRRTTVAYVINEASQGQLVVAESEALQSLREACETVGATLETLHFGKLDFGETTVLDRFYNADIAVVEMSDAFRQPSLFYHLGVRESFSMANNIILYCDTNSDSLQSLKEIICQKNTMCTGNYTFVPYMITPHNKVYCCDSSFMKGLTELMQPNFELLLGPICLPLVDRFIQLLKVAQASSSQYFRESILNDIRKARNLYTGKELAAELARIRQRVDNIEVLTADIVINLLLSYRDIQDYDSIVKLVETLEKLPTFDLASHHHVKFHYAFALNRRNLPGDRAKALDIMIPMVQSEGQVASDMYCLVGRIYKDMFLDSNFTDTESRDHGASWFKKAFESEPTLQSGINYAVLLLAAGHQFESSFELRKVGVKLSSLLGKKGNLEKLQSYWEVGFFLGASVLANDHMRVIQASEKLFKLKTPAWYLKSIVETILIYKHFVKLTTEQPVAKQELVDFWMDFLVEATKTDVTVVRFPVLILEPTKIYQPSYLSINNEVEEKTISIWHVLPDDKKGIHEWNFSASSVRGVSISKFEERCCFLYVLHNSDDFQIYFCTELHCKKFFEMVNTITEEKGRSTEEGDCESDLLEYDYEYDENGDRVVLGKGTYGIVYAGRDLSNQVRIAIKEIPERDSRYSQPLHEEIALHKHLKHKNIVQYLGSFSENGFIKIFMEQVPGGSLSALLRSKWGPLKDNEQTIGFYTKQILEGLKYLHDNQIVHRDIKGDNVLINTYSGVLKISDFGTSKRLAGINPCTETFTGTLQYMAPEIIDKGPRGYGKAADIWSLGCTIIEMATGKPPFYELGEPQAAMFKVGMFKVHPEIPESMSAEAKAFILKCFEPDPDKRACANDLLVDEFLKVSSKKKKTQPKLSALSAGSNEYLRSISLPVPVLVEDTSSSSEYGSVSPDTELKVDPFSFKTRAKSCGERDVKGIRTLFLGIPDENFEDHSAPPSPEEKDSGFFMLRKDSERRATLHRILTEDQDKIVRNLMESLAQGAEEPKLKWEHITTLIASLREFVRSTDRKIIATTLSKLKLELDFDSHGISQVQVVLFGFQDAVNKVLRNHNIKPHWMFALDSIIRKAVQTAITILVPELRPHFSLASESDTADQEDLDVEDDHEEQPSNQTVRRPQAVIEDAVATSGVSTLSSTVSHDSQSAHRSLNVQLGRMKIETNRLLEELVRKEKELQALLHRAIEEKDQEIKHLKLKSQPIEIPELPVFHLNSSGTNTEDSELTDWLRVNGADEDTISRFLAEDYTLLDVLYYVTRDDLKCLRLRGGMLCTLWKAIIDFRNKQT

SMILES	IC50 [nM]
CCOC(=O)N1CCc2cc(F)c(C(=O)Nc3cccc(-c4nnc5n4[C@@H](C)CC5)n3)cc2C1 [Example 13]	10 to 100
COc1cc2c(cc1C(=O)Nc1cccc(-c3nnc4n3C(C)(C)CC4)n1)CN(C(=O)OC(C)(C)C)CC2 [Example 14, tert-butyl 7-((6-(5,5-dimethyl-6,7-dihydro-5H-pyrrolo[2,1-c][1,2,4]triazol-3-yl)pyridin-2-yl)carbamoyl)-6-methoxy-3,4-dihydroisoquinoline-2(1H)-carboxylate]	1.25 to 10
CCOC(=O)N1CCc2cnc(C(=O)Nc3cccc(-c4nnc5n4[C@H](C)CC5)n3)cc2C1 [Example 15]	1.25 to 10
COc1cc2c(cc1C(=O)Nc1cccc(-c3nnc4n3C(C)(C)CC4)n1)CN(C(=O)C[C@H](C)O)CC2 [Example 18, (S)—N-(6-(5,5-dimethyl-6,7-dihydro-5H-pyrrolo[2,1-c][1,2,4]triazol-3-yl)pyridin-2-yl)-2-(3-hydroxybutanoyl)-6-methoxy-1,2,3,4-tetrahydroisoquinoline-7-carboxamide]	< 1.25
COc1cc2c(cc1C(=O)Nc1cccc(-c3nnc4n3C(C)(C)CC4)n1)CN(C(=O)C(C)(C)O)CC2 [Example 20, N-(6-(5,5-dimethyl-6,7-dihydro-5H-pyrrolo[2,1-c][1,2,4]triazol-3-yl)pyridin-2-yl)-2-(2-hydroxy-2-methylpropanoyl)-6-methoxy-1,2,3,4-tetrahydroisoquinoline-7-carboxamide]	< 1.25

Further lines, results first:

IC50 [nM]	SMILES
1.25 to 10	CCOC(=O)N1CCc2cc(F)c(C(=O)Nc3cccc(-c4nnc5n4C(C)(C)CC5)n3)cc2C1 [Example 11, Ethyl 7-((6-(5,5-dimethyl-6,7-dihydro-5H-pyrrolo[2,1-c][1,2,4]triazol-3-yl)pyridin-2-yl)carbamoyl)-6-fluoro-3,4-dihydroisoquinoline-2(1H)-carboxylate]
1.25 to 10	CCOC(=O)N1CCc2cc(F)c(C(=O)Nc3cccc(-c4nnc5n4[C@H](C)CC5)n3)cc2C1 [Example 12]
< 1.25	COCCC(=O)N1CCc2cc(OC)c(C(=O)Nc3cccc(-c4nnc5n4C(C)(C)CC5)n3)cc2C1 [Example 16, N-(6-(5,5-dimethyl-6,7-dihydro-5H-pyrrolo[2,1-c][1,2,4]triazol-3-yl)pyridin-2-yl)-6-methoxy-2-(3-methoxypropanoyl)-1,2,3,4-tetrahydroisoquinoline-7-carboxamide]
< 1.25	COc1cc2c(cc1C(=O)Nc1cccc(-c3nnc4n3C(C)(C)CC4)n1)CN(C(=O)C(C)(C)CO)CC2 [Example 17, N-(6-(5,5-dimethyl-6,7-dihydro-5H-pyrrolo[2,1-c][1,2,4]triazol-3-yl)pyridin-2-yl)-2-(3-hydroxy-2,2-dimethylpropanoyl)-6-methoxy-1,2,3,4-tetrahydroisoquinoline-7-carboxamide]
< 1.25	COc1cc2c(cc1C(=O)Nc1cccc(-c3nnc4n3C(C)(C)CC4)n1)CN(C(=O)[C@@H](O)CC(C)C)CC2 [Example 19, (S)—N-(6-(5,5-dimethyl-6,7-dihydro-5H-pyrrolo[2,1-c][1,2,4]triazol-3-yl)pyridin-2-yl)-2-(2-hydroxy-4-methylpentanoyl)-6-methoxy-1,2,3,4-tetrahydroisoquinoline-7-carboxamide]
1.25 to 10	CCOC(=O)N1CCc2cc(OC)c(C(=O)Nc3cccc(-c4nnc5n4CCC5)n3)cc2C1 [Example 21, Ethyl 7-((6-(6,7-dihydro-5H-pyrrolo[2,1-c][1,2,4]triazol-3-yl)pyridin-2-yl)carbamoyl)-6-methoxy-3,4-dihydroisoquinoline-2(1H)-carboxylate]
